Patent US20140288117A1, “USE OF CYSTEAMINE IN TREATING PARKINSON'S DISEASE” (Omega Bio-Pharma (I.P. 2) Ltd, priority 2010, published 2014)

What was measured:
[1] = system: glutathione (GSH) levels in the SNpc; experiment: Total glutathione (GSH) level in SNpc using glutathione reductase; type: in vivo, mice; conditions: mean±SD
Method: (§1) C57/BL mice weighted 20-22 g were used. […] The control group was injected with 0.9% saline.
(§2) The formation of thiobarbituric acid reactive species (TBARS) during an acid-heating reaction was determined by the absorbance at 532 nm. The rate of lipid peroxidation was expressed as nmol/mg protein. SOD activity was detected based on its ability to inhibit the superoxide anion free radical of O^2− generated by the xanthine/xanthine oxidase system. The absorbance at 550 nm was monitored and SOD levels were expressed as U/mg protein. The total glutathione (reduced and oxidized form of glutathione) was determined using glutathione reductase. Absorbance was measured at 412 nm using microplate reader. The standard curve was obtained from absorbance of the diluted commercial GSH that was incubated in the mixture as in samples. Results were reported as nmol TNB/mg protein.

[2] = system: malondialdehyde (MDA); experiment: Malondialdehyde (MDA) / TBARS lipid peroxidation in substantia nigra; type: in vivo, mice; conditions: n = 8
Method: as §1, §2

[3] = system: brain-derived neurotrophic factor (BDNF); experiment: BDNF concentration in substantia nigra by ABC-ELISA; conditions: for BDNF concentration in substantia nigra: mean±SD
Method: C57/BL mice weighted 20-22 g were used. Mice were treated with cysteamine and/or induced by MPTP fresh preparations according to the group assignments. Group assignments (n=8/group) were as follows: (1) saline (control) group, (2) MPTP alone (see below), (3) cysteamine (CS) 20 mg/kg/d alone for two weeks, (4) CS 75 mg/kg/d alone for two weeks, (5) CS 20 mg/kg/d for total 14 days and MPTP was given from day 5 to 9, (6) CS 75 mg/kg/d for total 14 days and MPTP was given from day 5 to 9, (7) simultaneous administration of MPTP and CS 20 mg/kg/d for 5 days followed by CS for additional 9 days, (8) simultaneous administration of MPTP and CS 75 mg/kg/d for 5 days followed by CS for additional 9 days. The control group was injected with 0.9% saline. MPTP (20 mg/kg) was intraperitoneally (i.p.) injected into the mice twice daily at an interval of 12 hrs for the initial 2 days and once per day on day 3-5 (Tremblay et al., “Neuroprotective effects of cystamine in aged parkinsonian mice,” Neurobiol Aging. 27:862-870 (2006)). CS (20 mg/kg/d and 75 mg/kg/day were injected alone for 14 days.
After treatment for 14 days, the animals were sacrificed by decapitation. Tissues were quickly removed from the brain on a Petri dish placed on ice using laboratory microscope (Chan et al., “Development of a high resolution three-dimensional surgical atlas of the murine head for strains 129S1/SvImJ and C57Bl/6J using magnetic resonance imaging and micro-computed tomography,” Neuroscience. 144:604-615 (2007)). Bilateral corpus striatum stored at −80° C. until used for HPLC analysis. Bilateral substantia nigra were immediately homogenized using an Ultrasonic Cell Disruptor (Biologics, Model 150 V/T), and which were centrifuged. The supernatant was used for the estimation of various enzyme activities.
The concentration of BDNF was measured by an ABC-ELISA method, according to the manufacturer's protocol (Beyotime Institute of Biotechnology). […] OD value and BDNF concentration are proportional to the standard curve obtained the standard BDNF concentrations. Data are represented as pg/mg protein.

[4] = system: reactive oxygen species (ROS); experiment: ROS level in substantia nigra cells by DCDHF-DA fluorescence; type: in vivo, mice; conditions: n = 8
Method: as §1
The ROS level was measured using 2′,7′-dichlorodihydrofluorescein diacetate (DCDHF-DA). DCDHF-DA which is cell-permeable and non-fluorescent, and, in the presence of ROS it is oxidized inside cells and transformed into a fluorescent compound, 2′,7′-dichlorofluorescein (DCDF), which remains trapped within the cell. To measure the ROS level in substantia nigra, isolated cells (10^5/ml) were incubated with 50 μM DCDHF-DA for 40 min at 37° C. and washed twice in PBS. The fluorescence was monitored in microplate reader (Liu, et al., 2009). For each sample, 10,000 cells were acquired. Data were expressed as an average of fluorescence intensity of analyzed cell population (mean fluorescence intensity±SD).

[5] = system: striatal dopamine (DA) concentration; experiment: Assay of striatal dopamine (DA) by HPLC; type: in vivo, mice; conditions: mean±SD
Method: as §1
Samples were processed blindly to the treatment conditions for HPLC analysis with electrochemical detector (ECD) using the method by Beyer (Bayer, et al., 2002). Bilaterally corpus striatum tissues were sonicated in 1 ml of pre-colded 0.4 N HClO4. The resulting homogenates were centrifuged twice for 12 min at 12000×g at 4° C. Mobile phase consisting of 0.035 mol/L anhydrous citric acid, 0.09 mol/L without Water-sodium acetate, 0.23 mmol/L sodium alkane sulfonate, 0.13 mmol/L EDTA, 10% methanol (pH4.7). Electrochemical conditions for the experiment were +0.50V. Separation was carried out at a flow rate of 1.0 ml/min. Samples (20 μl) were automatic injected and were quantified by comparison of the area under the curve (AUC) against reference standards. The concentrations of DA were expressed as ng/mg protein of the brain tissue. Protein content was determined in tissue supernatants by the method of Lowry using bovine serum albumin as a standard (Lowry et al., “Protein measurement with the Folin phenol reagent,” J Biol Chem. 193:265-275 (1951)).

[6] = system: TH-immunoresponsive (TH-IR) neurons in the substantia nigra of MPTP-treated mice; experiment: Tyrosine hydroxylase immunohistochemistry: number of TH-IR neurons in substantia nigra; type: in vivo; conditions: mean±SD
Method: as §1
Twenty-four hours later the last injection, mice were anesthetized with chloral hydrate (100 mg/kg). The mice were subjected to thoracotomy and perfusion with ice-cold 0.9% sodium chloride 50 ml, then with 4% paraformaldehyde (PFA) 100 ml in 0.01 M PBS through the left ventricular. After fixation, the brain was post-fixed and then cryoprotected in 30% sucrose for 24 h. The brains were sectioned through the substantia nigra (SN) coronally at 30 um thickness on a cryostat (Leica CM1900, Nussloch, Germany). Sections were collected in 0.01 M PBS and processed free floating. The free floating sections were washed 3 times in Tris-buffered saline (TBS), incubated with H2O2 (3%) for 30 min and blocked with 5% normal goat serum (NGS), 0.2% Triton X-100 in TBS. Sections were incubated for 24 h with primary rabbit anti-TH monoclonal antibody (1:10000) (Watanabe et al., “Protective effects of M, Matsubara, Imai Y, Araki T. neuronal nitric oxide synthase inhibitor in mouse brain against MPTP neurotoxicity: an immunohistological study,” Eur Neuropsychopharmacol. 14:93-104 (2004)). Sections were washed in PBS and incubated for 2 hr at room temperature in secondary antibodies: biotinylated goat anti-rabbit (1:500) diluted in blocking buffer. The sections were incubated for 2 hr at room temperature in horseradish peroxidase labeled avidin work […] solution (1:500). TH immunoreactivity was visualized in SN after incubation in DAB and Nickel sulfate salt for 5-10 min. Sections were mounted on slides, dried, dehydrated in graded ethanol, cleared in xylene, and mounted with DPX mounting medium and coverslip. To test the specificity of the immunostaining, control sections were processed in an identical manner but with the primary antibody omitted. After TH-staining, the image of the sections from the substantia nigra were digitalized with NIS-Elements imaging software (Nikon). The number of neurons was measured in the bilateral substantia nigra.

[7] = system: superoxide dismutase (SOD); experiment: SOD activity in substantia nigra (xanthine/xanthine oxidase system); type: in vivo, mice; conditions: n = 8
Method: as §1, §2

[8] = C20 mg alone (cysteamine 20 mg/kg/d, no MPTP)
[9] = C75 mg alone (cysteamine 75 mg/kg/d, no MPTP)

CN1CC=C(c2ccccc2)CC1.Cl [MPTP, 1-methyl-4-phenyl-1,2,3,6-tetrahydropyridine hydrochloride]
level of GSH in the SNpc ([1]; MPTP alone, control 3.52±1.44): 0.55±0.36 nmol TNB/mg protein
MDA ([2]; MPTP alone, substantia nigra, control 7.89 ± 0.65): 10.84 ± 2.65 nmol/mg
BDNF concentration in substantia nigra ([3]; MPTP alone, control 78.34±16.09): 39.55±7.82 pg/mg protein
ROS ([4]; MPTP alone, substantia nigra, control 13010 ± 261): 20207 ± 203 MFI
striatal DA concentration ([5]; MPTP alone, control 57.62±12.70): 26.38±6.47 ng/mg protein
number of TH-IR nigral neurons ([6]; MPTP alone (20 mg/kg i.p., 5 days), control 295.65±47.47): 166.65±58.15
SOD ([7]; MPTP alone, substantia nigra, control 52.55 ± 13.35): 57.73 ± 9.57 U/mg

NCCS [cysteamine]
level of GSH in the SNpc ([1]; pretreatment with low dose cysteamine (20 mg/kg/d) + MPTP): 3.16±1.28 nmol TNB/mg protein
MDA ([2]; C20 mg + MPTP (pretreatment)): 8.25 ± 0.90 nmol/mg
MDA [2, 8]: 8.82 ± 2.44 nmol/mg
MDA ([2]; C75 mg + MPTP (pretreatment)): 8.56 ± 1.08 nmol/mg
MDA [2, 9]: 8.90 ± 2.14 nmol/mg
MDA ([2]; MPTP + C20 mg (simultaneous)): 9.86 ± 0.91 nmol/mg
MDA ([2]; MPTP + C75 mg (simultaneous)): 9.51 ± 0.57 nmol/mg
BDNF concentration in substantia nigra ([3]; high dose cysteamine (75 mg/kg/d) + MPTP): 55.43±12.15 pg/mg protein
BDNF concentration in substantia nigra ([3]; low dose cysteamine (20 mg/kg/d) + MPTP): 74.22±7.79 pg/mg protein
BDNF concentration in substantia nigra ([3]; low dose cysteamine (20 mg/kg/d) alone, no MPTP): 103.36±30.48 pg/mg protein
reversal of MPTP-induced decrease of BDNF ([3]; simultaneous administration of cysteamine (20 or 75 mg/kg/d) with MPTP, both P>0.05): did not reverse the decrease of BDNF by MPTP
ROS ([4]; C20 mg + MPTP (pretreatment)): 17411 ± 589 MFI
ROS [4, 8]: 17460 ± 779 MFI
ROS ([4]; C75 mg + MPTP (pretreatment)): 17411 ± 362 MFI
ROS [4, 9]: 17980 ± 419 MFI
ROS ([4]; MPTP + C20 mg (simultaneous)): 19539 ± 431 MFI
ROS ([4]; MPTP + C75 mg (simultaneous)): 21976 ± 489 MFI
striatal DA concentration ([5]; cysteamine 20 mg/kg/d 4 days before and along with MPTP): 47.96±10.57 ng/mg protein
striatal DA concentration ([5]; cysteamine 75 mg/kg/d pretreatment + MPTP): 25.65±7.71 ng/mg protein
striatal DA concentration ([5]; cysteamine 75 mg/kg/day alone, no MPTP): 32.22±4.71 ng/mg protein
striatal DA concentration ([5]; simultaneous treatment cysteamine 20 mg/kg/d during MPTP): 36.27±16.42 ng/mg protein
striatal DA concentration ([5]; simultaneous treatment cysteamine 75 mg/kg/day during MPTP): 25.08±8.10 ng/mg protein
number of TH-IR nigral neurons ([6]; cysteamine 20 mg/kg/d 4 days prior to and along with MPTP (CS20 mg/kg/d+MPTP)): 262.45±32.75
number of TH-IR nigral neurons ([6]; cysteamine 75 mg/kg/d alone, no MPTP): 271.05±44.93
number of TH-IR nigral neurons ([6]; cysteamine 75 mg/kg/d pretreatment + MPTP (CS75 mg/kg/d+MPTP)): 172.10±42.69
number of TH-IR nigral neurons ([6]; simultaneous treatment MPTP+CS20 mg/kg/d): 179.5±68.11
number of TH-IR nigral neurons ([6]; simultaneous treatment MPTP+CS75 mg/kg/d): 174.05±45.78
SOD ([7]; C20 mg + MPTP (pretreatment)): 62.11 ± 4.74 U/mg
SOD [7, 8]: 58.88 ± 17.66 U/mg
SOD ([7]; C75 mg + MPTP (pretreatment)): 58.53 ± 5.82 U/mg
SOD [7, 9]: 59.13 ± 10.66 U/mg
SOD ([7]; MPTP + C20 mg (simultaneous)): 66.77 ± 4.64 U/mg
SOD ([7]; MPTP + C75 mg (simultaneous)): 59.58 ± 2.24 U/mg
